# Key:
# PC3 (prostate carcinoma) = experiment: IC50 in human cancer cell lines (inhibiting HDAC): PC3; conditions: read-out: IC50 ± SD against human cancer cell lines
# [1] = test system: HT-29 (colorectal carcinoma); experiment: IC50 in human cancer cell lines (inhibiting HDAC): HT-29; conditions: HT-29, read-out: IC50 ± SD against human cancer cell lines
# [2] = test system: histone and α-tubulin acetylation in PC3 cells; experiment: Western blot: acetylation in PC3 cells; assay type: cell-based, human; conditions: concentration-dependent
# Experimental: More specifically, cells in the logarithmic phase were initially seeded at a density of 1×10^6 in 100 mm^2 dishes. […] Briefly, cells were lysed with the cell lysis reagent CelLytic™ M (Sigma-Aldrich) containing 1 mM DTT, 1 mM PMSF and protease inhibitors for whole-cell lysate preparation. Equal amounts of lysate (on a protein basis) were then differentiated using the SDS-PAGE, blotted on PVDF membranes, conjugated with various specific primary antibodies, and then probed with appropriate secondary antibodies. The immunoreactive bands were detected using the ECL method and visualized on Kodak Bio-MAX MR film.
# Proteins from cells were extracted and subjected to the western blotting analysis. β-Actin was used as an internal control. The deacetylase enzyme assay was based on a homogeneous fluorescence release assay. […] After fluorophore from the deacetylated substrates, fluorescent signal was detected.
# [3] = test system: KB cell line (oral carcinoma); experiment: IC50 in human cancer cell lines (inhibiting HDAC): KB; conditions: Homo sapiens, read-out: IC50 ± SD against human cancer cell lines, KB, oral carcinoma
# [4] = test system: MDA-MB-231 (breast carcinoma); experiment: IC50 against human cancer cell lines: MDA-MB-231; conditions: MDA-MB-231, read-out: IC50 ± SD against human cancer cell lines
# Experimental: (§1) More specifically, the IC50 values of test compounds were determined by carrying out a fluorimetric histone deacetylase assay following the manufacturer's instructions. For a pan-HDAC assay, HeLa nuclear extracts were used as a source of histone deacetylase (BioVision Inc.). Histone deacetylase isomer inhibition assays were conducted using purified recombinant histone deacetylase proteins of the various isomers (BPS Bioscience Inc.). Reactions were performed in 0.1 mol/L KCl, 20 mmol/L HEPES/NaOH at pH 7.9, 20% glycerol, 0.2 mmol/L DTA, 0.5 mmol/L DTT, and 0.5 mmol/L phenylmethylsulfonylfluoride. […] Reactions were carried out in triplicate for each test compound. Each point represented the mean±SD of replicates.
# KB-7D (KB resistant) = experiment: IC50 against human cancer cell lines: KB-7D; conditions: KB7D, read-out: IC50 ± SD against human cancer cell lines
# Experimental: as §1
# [5] = test system: histone and a-tubulin acetylation in human DU145 cells; experiment: Western blot: acetylation in DU145 cells; assay type: cell-based
# Experimental: More specifically, cells in the logarithmic phase were initially seeded at a density of 1×10^6 in 100 mm^2 dishes. […] IC50 indicia of compound in vitro potency) for the indicated times (i.e., 24 and 48 hours), adherent cells were collected for protein extract preparation. Briefly, cells were lysed with the cell lysis reagent CelLytic™ M (Sigma-Aldrich) containing 1 mM DTT, 1 mM PMSF and protease inhibitors for whole-cell lysate preparation. Equal amounts of lysate (on a protein basis) were then differentiated using the SDS-PAGE, blotted on PVDF membranes, conjugated with various specific primary antibodies, and then probed with appropriate secondary antibodies. The immunoreactive bands were detected using the ECL method and visualized on Kodak Bio-MAX MR film. Proteins from cells were extracted and subjected to the western blotting analysis. β-Actin was used as an internal control. The deacetylase enzyme assay was based on a homogeneous fluorescence release assay. […] After fluorophore from the deacetylated substrates, fluorescent signal was detected.
# [6] = test system: LNCaP-R1 (prostate carcinoma); experiment: IC50 against human cancer cell lines: LNCaP-R1; conditions: read-out: IC50 ± SD against human cancer cell lines
# Experimental: as §1
# [7] = test system: LNCaP-R2 (prostate carcinoma); experiment: IC50 against human cancer cell lines: LNCaP-R2; conditions: read-out: IC50 ± SD against human cancer cell lines
# WI-38 (normal: lung) = experiment: IC50 against cell lines: WI-38; conditions: Homo sapiens, WI-38, read-out: IC50 ± SD against human cancer cell lines
# KB-VIN10 (KB resistant) = experiment: IC50 against human cancer cell lines: KB-VIN10; conditions: Homo sapiens, KB-VIN10, read-out: IC50 ± SD against human cancer cell lines
# [8] = test system: DU-145 (prostate carcinoma); experiment: IC50 against human cancer cell lines: DU-145; conditions: DU-145, read-out: IC50 ± SD against human cancer cell lines
# Experimental: as §1
# [9] = test system: Detroit551 (normal: fibroblast); experiment: IC50 against cell lines: Detroit551; conditions: Homo sapiens, Detroit 551, read-out: IC50 ± SD against human cancer cell lines
# MCF-7 (breast carcinoma) = experiment: IC50 in human cancer cell lines (inhibiting HDAC): MCF-7; conditions: MCF7, read-out: IC50 ± SD against human cancer cell lines
# [10] = test system: H460 (non-small-cell lung carcinoma); experiment: IC50 in human cancer cell lines (inhibiting HDAC): H460; conditions: NCI-H460, read-out: IC50 ± SD against human cancer cell lines
# KB-L30 (KB-resistant) = experiment: IC50 against human cancer cell lines: KB-L30; conditions: read-out: IC50 ± SD against human cancer cell lines
# Experimental: as §1
# [11] = test system: androgen-independent PC3 prostate cancer cells; experiment: Cell cycle analysis; assay type: cell-based, human; conditions: androgen-independent PC3 prostate cancer cells
# Experimental: More specifically, cells in the logarithmic phase were initially seeded at a density of 1×10^6 in 100 mm^2 dishes. After treatment with various concentrations of test compounds for the indicated times, cells were trypsinized, washed with PBS, and fixed in 70% ethanol. The fixed cells were then treated with 50 μg/mL RNase and stained with 50 μg/mL propidium iodide at room temperature for 20 minutes. The DNA content was determined by BD FACS Calibur flow cytometry system (BD Biosciences). For each analysis, 10,000 cells were counted, and the percentage of cells in each phase was calculated using ModFit LT software (Verity Software House, Inc.).
smiles,measurement,setting,value
"O=C(/C=C/c1cnc2c(ccn2S(=O)(=O)c2ccccc2)c1)NO [Compound 14a, (E)-N-hydroxy-3-(1-(phenylsulfonyl)-1H-pyrrolo[2,3-b]pyridin-5-yl)acrylamide]",IC50,PC3 (prostate carcinoma),0.38 ± 0.22 µM
same,IC50,[1],0.182 ± 0.0267 µM
same,histone and α-tubulin acetylation,[2],induced histone and α-tubulin acetylation
same,IC50,[3],0.252 ± 0.0585 µM
same,IC50,[4],0.184 ± 0.05 µM
same,IC50,KB-7D (KB resistant),0.276 ± 0.0784 µM
same,histone and a-tubulin acetylation,[5],induced histone and a-tubulin acetylation
same,IC50,[6],0.156 ± 0.04 µM
same,IC50,[7],0.141 ± 0.05 µM
same,IC50,WI-38 (normal: lung),> 1 µM
same,IC50,KB-VIN10 (KB resistant),0.213 µM
same,IC50,[8],0.42 ± 0.17 µM
same,IC50,[9],> 1 µM
same,IC50,MCF-7 (breast carcinoma),0.17 ± 0.055 µM
same,IC50,[10],0.243 ± 0.0704 µM
same,IC50,KB-L30 (KB-resistant),0.445 ± 0.249 µM
same,cell cycle arrest and apoptosis,[11],induced cell cycle arrest and apoptosis
